Results reported in US20200369728A1, “PEPTIDOMIMETIC MACROCYCLES AND USES THEREOF” (Aileron Therapeutics, Inc., priority 2015, published 2020).
pEC50: −log10 of the molar value. Bridge positions count the residues as written; N and C are the ends. Square brackets hold non-standard residues; d marks the D form. Peptide text beside a SMILES is read from it. Trp(6-Cl) = N[C@@H](Cc1c[nH]c2cc(Cl)ccc12)C(=O)O; R8 = C=CCCCCCC[C@@](C)(N)C(=O)O; S5 = C=CCCC[C@](C)(N)C(=O)O

Tests used:
Caspase 3 = Caspase 3 detection assay in SJSA1 cells; format: cell-based; conditions: SJSA1, 48 h, Caspase 3 activation over DMSO-treated cells
SJSA-1 cells = test: Cell lysis by peptidomimetic macrocycles (LDH release); format: cell-based; conditions: SJSA-1, 1 h
Method in brief: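 SJSA-1 cells plated the day before, switched to RPMI with 1% FBS, then exposed 1 h at 37 °C to macrocycle at final 50 μM to 6.25 μM in 0.5% DMSO. LDH released into the supernatant was measured by kit. Controls: 0.5% DMSO (non-lytic), 10 μM melittin and 1% Triton X-100 (lytic).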

RKO = test: Cell viability assay (MTT), RKO; conditions: read-out: RKO EC50 (72 h)

SMILES	caspase 0.3 μM (Caspase 3)	caspase 1 μM (Caspase 3)	caspase 3 μM (Caspase 3)	caspase 10 μM (Caspase 3)	caspase 30 μM (Caspase 3)	6.25 μM % Lysed cells (1 h LDH) (SJSA-1 cells)	25 μM % Lysed cells (1 h LDH) (SJSA-1 cells)	50 μM % Lysed cells (1 h LDH) (SJSA-1 cells)	pEC50 (RKO)
CC(=O)N[C@@H](CC(C)C)C(=O)N[C@H](C(=O)N[C@@H](Cc1ccccc1)C(=O)N[C@]1(C)CCCCCC/C=C/CCC[C@@](C)(C(=O)N[C@@H](C)C(=O)N[C@@H](C)C(=O)N[C@@H](C)C(=O)N[C@@H](C)C(=O)N[C@@H](C)C(=O)N[C@H](C)C(N)=O)NC(=O)[C@H](CC2CCC2)NC(=O)[C@H](CCC(N)=O)NC(=O)[C@H](CO)NC(=O)[C@H](Cc2c[nH]c3ccccc23)NC(=O)[C@H](Cc2ccc(O)cc2)NC(=O)[C@H](CCC(=O)O)NC1=O)[C@@H](C)O [compound 351]	3	9	13	15	24	0%	0%	0%	4.82 to 5.30
CC(=O)N[C@@H](CC(C)C)C(=O)N[C@H](C(=O)N[C@@H](Cc1ccccc1)C(=O)N[C@]1(C)CCCCCC/C=C/CCC[C@@](C)(C(=O)N[C@@H](CO)C(=O)N[C@@H](C)C(=O)N[C@@H](C)C(N)=O)NC(=O)[C@H](CC(C)C)NC(=O)[C@H](CCC(N)=O)NC(=O)[C@H](C)NC(=O)[C@H](Cc2c[nH]c3cc(Cl)ccc23)NC(=O)[C@H](Cc2ccc(O)cc2)NC(=O)[C@H](C)NC1=O)[C@@H](C)O [compound 99] (Ac-LTF[R8]AY[Trp(6-Cl)]AQL[S5]SAA-NH2; staple (E) 4-11)	1		7	31	33	1.5%	2%	3.5%	> 5.30
CC[C@H](C)[C@H](NC(=O)[C@H](C)NC(=O)[C@H](C)NC(=O)[C@]1(C)CCCC=CCCCCCC[C@@](C)(NC(=O)[C@H](Cc2ccccc2)NC(=O)[C@@H](NC(=O)[C@H](CCC(=O)O)NC(C)=O)[C@@H](C)O)C(=O)N[C@@H](CCC(=O)O)C(=O)N[C@@H](Cc2c[nH]cn2)C(=O)N[C@@H](Cc2c[nH]c3ccccc23)C(=O)N[C@@H](C)C(=O)N[C@@H](CCC(N)=O)C(=O)N[C@@H](CC(C)C)C(=O)N1)C(=O)N[C@H](C)C(N)=O (single isomer, unassigned) [compound 175]	1		5	12	21	3%	1%	0%	< 4.52
CC(=O)N[C@@H](C)C(=O)N[C@@H](CC(C)C)C(=O)N[C@H](C(=O)N[C@@H](Cc1ccccc1)C(=O)N[C@]1(C)CCCCCCC=CCCC[C@@](C)(C(=O)N[C@@H](CO)C(=O)N[C@@H](C)C(=O)N[C@@H](C)C(=O)N[C@@H](C)C(=O)N[C@H](C)C(N)=O)NC(=O)[C@H](CC2CCC2)NC(=O)[C@H](CCC(N)=O)NC(=O)[C@H](C)NC(=O)[C@H](Cc2c[nH]c3ccccc23)NC(=O)[C@H](Cc2ccc(O)cc2)NC(=O)[C@H](CCC(=O)O)NC1=O)[C@@H](C)O (single isomer, unassigned) [compound 357]	2	7	11	15	23	0%	0%	0%	> 5.30
CC(=O)N[C@@H](CC(C)C)C(=O)N[C@H](C(=O)N[C@@H](Cc1ccccc1)C(=O)N[C@]1(C)CCCCCCC=CCCC[C@@](C)(C(=O)N[C@@H](CO)C(=O)N[C@@H](C)C(=O)N[C@@H](C)C(N)=O)NC(=O)[C@H](CC(C)C)NC(=O)[C@H](C)NC(=O)[C@H](C(C)C)NC(=O)[C@H](Cc2c[nH]c3ccccc23)NC(=O)[C@H](Cc2ccc(O)cc2)NC(=O)[C@H](C)NC1=O)[C@@H](C)O [compound 196] (Ac-LTF[R8]AYWVAL[S5]SAA-NH2; staple 4-11)	1		4	33	26	0%	0%	3%	> 5.30
CC(=O)N[C@@H](CC(C)C)C(=O)N[C@H](C(=O)N[C@@H](Cc1ccccc1)C(=O)N[C@]1(C)CCCCCCC=CCCC[C@@](C)(C(=O)N[C@@H](CO)C(=O)N[C@@H](Cc2c[nH]c3ccccc23)C(=O)N[C@@H](C)C(N)=O)NC(=O)[C@H](CC(C)C)NC(=O)[C@H](CCC(N)=O)NC(=O)[C@H](C)NC(=O)[C@H](Cc2c[nH]c3ccccc23)NC(=O)[C@H](Cc2ccc(O)cc2)NC(=O)[C@H](C)NC1=O)[C@@H](C)O (single isomer, unassigned) [compound 120]	2		11	20	30	0%	0%	6%	> 5.30
CC(=O)N[C@@H](CC(C)C)C(=O)N[C@H](C(=O)N[C@@H](Cc1ccccc1)C(=O)N[C@]1(C)CCCCCCC=CCCC[C@@](C)(C(=O)N[C@@H](CO)C(=O)N[C@@H](C)C(=O)N[C@@H](CC(C)C)C(N)=O)NC(=O)[C@H](CC(C)C)NC(=O)[C@H](CCC(N)=O)NC(=O)[C@H](C)NC(=O)[C@H](Cc2c[nH]c3ccccc23)NC(=O)[C@H](Cc2ccc(O)cc2)NC(=O)[C@H](C)NC1=O)[C@@H](C)O [compound 4] (Ac-LTF[R8]AYWAQL[S5]SAL-NH2; staple 4-11)			9	37	35	−2%	1%	2%	> 5.30
CC(=O)N[C@@H](CC(C)C)C(=O)N[C@H](C(=O)N[C@@H](Cc1ccccc1)C(=O)N[C@]1(C)CCCCCCC=CCCC[C@@](C)(C(=O)N[C@@H](CO)C(=O)N[C@@H](C)C(=O)N[C@@H](CO)C(N)=O)NC(=O)[C@H](CC(C)C)NC(=O)[C@H](CCC(N)=O)NC(=O)[C@H](C)NC(=O)[C@H](Cc2c[nH]c3ccccc23)NC(=O)[C@H](Cc2ccc(O)cc2)NC(=O)[C@H](C)NC1=O)[C@@H](C)O [compound 122] (Ac-LTF[R8]AYWAQL[S5]SAS-NH2; staple 4-11)	1		2	15	30	1%	0%	6%	4.82 to 5.30
CC(=O)N[C@@H](CCC(=O)O)C(=O)N[C@H](C(=O)N[C@@H](Cc1ccccc1)C(=O)N[C@]1(C)CCCCCCC=CCCC[C@@](C)(C(=O)N[C@@H](CO)C(=O)N[C@@H](C)C(=O)N[C@@H](C)C(N)=O)NC(=O)[C@H](CC(C)C)NC(=O)[C@H](CCC(N)=O)NC(=O)[C@H](C)NC(=O)[C@H](Cc2c[nH]c3ccccc23)NC(=O)[C@H](Cc2ccc(O)cc2)NC(=O)[C@H](C(C)C)NC1=O)[C@@H](C)O [compound 125] (Ac-ETF[R8]VYWAQL[S5]SAA-NH2; staple 4-11)	1		3	9	29	0%	0%	2%	4.82 to 5.30
CC(=O)N[C@@H](CCC(=O)O)C(=O)N[C@H](C(=O)N[C@@H](Cc1ccccc1)C(=O)N[C@]1(C)CCCCCCC=CCCC[C@@](C)(C(=O)N[C@@H](CO)C(=O)N[C@H](C(=O)N[C@@H](C)C(N)=O)C(C)C)NC(=O)[C@H](CC(C)C)NC(=O)[C@H](CCC(N)=O)NC(=O)[C@H](C)NC(=O)[C@H](Cc2c[nH]c3ccccc23)NC(=O)[C@H](Cc2ccc(O)cc2)NC(=O)[C@H](C(C)C)NC1=O)[C@@H](C)O [compound 126] (Ac-ETF[R8]VYWAQL[S5]SVA-NH2; staple 4-11)	1		1	6	30	1%	1%	1%	< 4.52
CC(=O)N[C@@H](CC(C)C)C(=O)N[C@H](C(=O)N[C@@H](Cc1ccccc1)C(=O)N[C@]1(C)CCCCCCC=CCCC[C@@](C)(C(=O)N[C@@H](C)C(=O)N[C@@H](C)C(=O)N[C@@H](C)C(=O)N[C@@H](C)C(=O)N[C@@H](C)C(=O)N[C@@H](C)C(=O)N[C@H](C)C(N)=O)NC(=O)[C@H](CC(C)C)NC(=O)[C@H](CCC(N)=O)NC(=O)[C@H](C)NC(=O)[C@H](Cc2c[nH]c3ccccc23)NC(=O)[C@H](Cc2ccc(O)cc2)NC(=O)[C@H](C)NC1=O)[C@@H](C)O (single isomer, unassigned) [compound 316]	6.5	10.5	21	32	32.5	0%	0%	1%	> 5.30
